From publication PMC9289672, “Optimization of Antibacterial Activity in Tibetan Swine α-Helix Peptide TP by Site-Directed Mutagenesis” (Frontiers in Microbiology, 2022)
Where no end group is shown, it is not given here.

What was measured:
[1] = tested on: Enterococcus faecalis ATCC 29212
Source text: (§1) The bacteria strains Escherichia coli ATCC 25922, Escherichia coli UB1005, Salmonella typhimurium ATCC 14028, Salmonella typhimurium C7731, Pseudomonas aeruginosa ATCC 27853, Pseudomonas aeruginosa PAO1, Staphylococcus aureus ATCC 29213, Staphylococcus aureus ATCC 25923, Methicillin-resistant Staphylococcus aureus (MRSA) 43300, Enterococcus faecalis ATCC 29212, and Staphylococcus epidermidis ATCC 12228 were obtained from the College of Veterinary Medicine, Northeast Agricultural University (Harbin, China).
(§2) The bacteria were cultured overnight in the MHB medium and transferred to the new MHB the next day until the bacteria reached the exponential growth stage. The bacteria were diluted with MHB to 2 × 10^5 CFU/ml. About 50 μl of polypeptide and equal volume of bacterial suspension was added to a 96-well plate to give the final concentration of polypeptide between 1 and 128 μm. The last two columns are negative (MHB only) and positive (bacterial and MHB) controls and incubated at 37°C for 18–24 h. Optical density was measured at an absorbance wavelength of 492 nm using a microplate reader (Tecan GENios F129004, Tecan, Austria). At least three independent measurements were taken. Each trial was conducted two times in parallel. A total of three independent assays were carried out.

[2] = tested on: Escherichia coli ATCC 25922
Source text: as §1, §2

Escherichia coli UB1005 = details: MHB, bacteria diluted to 2 × 10^5 CFU/ml, peptide 1-128 μm, 37°C 18-24 h, OD 492 nm; three independent assays, two in parallel
Source text: as §1, §2

[3] = tested on: Methicillin-resistant Staphylococcus aureus (MRSA) 43300; details: Methicillin-resistant 43300
Source text: as §1, §2

[4] = tested on: Pseudomonas aeruginosa ATCC 27853
Source text: as §1, §2

[5] = tested on: Pseudomonas aeruginosa PAO1
Source text: as §1, §2

[6] = tested on: Salmonella typhimurium ATCC 14028
Source text: as §1, §2

[7] = tested on: Salmonella typhimurium C7731; details: MHB, bacteria diluted to 2 × 10^5 CFU/ml, peptide 1-128 μm, 37°C 18-24 h, OD 492 nm; three independent assays, two in parallel
Source text: as §1, §2

[8] = tested on: Staphylococcus aureus ATCC 25923
Source text: as §1, §2

[9] = tested on: Staphylococcus aureus ATCC 29213
Source text: as §1, §2

[10] = tested on: Staphylococcus epidermidis ATCC 12228
Source text: as §1, §2

Gram-negative bacteria = assay: Geometric mean of MIC and therapeutic index; type: cell-based; details: MHC/GM; 128 μm used when 50% hemolysis not observed at 128 μm
Protocol: as §2
(§3) Trp is a hydrophobic amino acid with aromatic side chains. It is a special amino acid in peptide design. Previous studies have pointed out that introducing amino acids will also bring toxicity while improving activity. […] For further evaluating the cell selectivity of the peptides, we also calculated the SI which defined as the ratio of MHC to the geometric mean (GM) (Dufourc, [2008]).

Gram-positive bacteria = assay: Geometric mean of MIC and therapeutic index; type: cell-based; details: MHC/GM; 128 μm used when 50% hemolysis not observed at 128 μm
Protocol: as §2, §3

all strains in Table 2 = assay: Geometric mean of MIC and therapeutic index; type: cell-based; details: MHC/GM; 128 μm used when 50% hemolysis not observed at 128 μm
Protocol: as §2
Trp is a hydrophobic amino acid with aromatic side chains. It is a special amino acid in peptide design. Previous studies have pointed out that introducing amino acids will also bring toxicity while improving activity. Therefore, at the beginning of the design, we predicted that selecting Trp as hydrophobic amino acid to substitute H-H position would bring certain toxicity to the peptide. Thus, as expected, the introduction of Trp increases the activity and toxicity of these peptides. […] Meanwhile, the virulence of TP(i+4) 1&2&5&6 and TP(i+4) 1&2&6&7 was lower than that of TP(i+4) 1&2&5&7. We infer that the location of hydrophobic centers can effectively reduce peptide toxicity by Trp substitution. For further evaluating the cell selectivity of the peptides, we also calculated the SI which defined as the ratio of MHC to the geometric mean (GM) (Dufourc, [2008]).

E. coli 25922 [11] = type: cell-based, Escherichia coli; details: 25922, 4 h
Protocol: (§4) The salt and serum stability of polypeptides were determined by improved MIC method (Lv et al., [2014]). Peptides were incubated with BSA containing different final concentrations of salt ions (150 mM NaCl, 4.5 mM KCl, 6 μm NH4Cl, 8 μm ZnCl2, 1 mM MgCl2, 2 mM CaCl2, and 4 μm FeCl3) (Wang et al., [2018]). To determine the stability of the peptide in serum, peptide was incubated with different proportions of serum (50%, 100%) at 37°C for 4 h. The following steps are the same as those for antimicrobial activity. Each trial was conducted two times in parallel. A total of three independent assays were carried out.

S. aureus 29213 = type: cell-based, Staphylococcus aureus; details: 29213, 4 h
Protocol: as §4

[12] = tested on: IPEC-J2 and HEK 293T cells
Protocol: (§5) The cytotoxicity of each peptide was assessed with IPEC-J12 and HEK 293T cells. […] Each trial was conducted two times in parallel. A total of three independent assays were carried out.

[13] = tested on: hRBCs (human red blood cells); assay: Hemolytic activity; details: three independent assays, two in parallel
Protocol: as §5

E. coli 25922 [14] = assay: Drug resistance assessment (continuous culture at sub-MIC); type: cell-based, Escherichia coli; details: E. coli 25922, serial passage at sub-MIC
Protocol: Continuous culture method was used to evaluate the drug resistance of peptides. Colistin was used as model antibiotic to test the resistance of E. coli 25922. First, minimum inhibitory concentration (MIC) was determined for peptide and Colistin Next, the bacteria with each sub-MIC concentration were diluted to 2 × 10^5 CFU/ml with MHB for the MIC determination of the next passage. The process was repeated 30 times.

E. coli 25922 [15] = assay: In vivo efficacy assay (peritonitis-sepsis model); details: C57BL/6 mice, i.p. E. coli 25922; peptide 5 mg/kg i.p. at 0 and 1 h, colistin 1 mg/kg; 12 h after infection; vs infected group, p < 0.05
Protocol: A total of 32 female C57BL/6 mice (weighing about 20 g) aged from 6 to 8 weeks were selected. The mice in each group were divided into 4 groups by blind method (n = 8): […] (d) treatment group (E. coli 25922 + Colistin). Mice in control group were intraperitoneally injected with 100 μl normal saline, and mice in other groups were intraperitoneally injected with 100 μl (~1 × 10^8 CFU/ml) diluted bacterial solution. The peptide treatment group was intraperitoneally injected with TP(i+4) 1&2&5 (5 mg/kg) at 0 and 1 h after infection, and the control group and antibiotic treatment group were injected with normal saline and colistin (1 mg/kg), respectively. The mice were then euthanized 12 h after infection. After weighing liver, lung, spleen, and kidney, the bacterial load of each organ was determined, and the histopathological changes in the organ sections were analyzed by H&E staining. Serum levels of inflammatory factors IL-6, IL-1β, and TNF-α were detected by ELISA kits (Shanghai Jinma).

## ASVVKKLWKGVWKLLK-NH2 [TP(i+4) 1&2&5]
[1]
  MIC, E. faecalis 29212: 2 µM
[2]
  MIC, E. coli 25922: 1 µM
Escherichia coli UB1005
  MIC, E. coli UB1005: 2 µM
[3]
  MIC, S. aureus 43300: 2 µM
[4]
  MIC, P. aeruginosa 27853: 2 µM
[5]
  MIC, P. aeruginosa PAO1: 2 µM
[6]
  MIC, S. typhimurium 14028: 2 µM
[7]
  MIC, S. typhimurium 7731: 4 µM
[8]
  MIC, S. aureus 25923: 2 µM
[9]
  MIC, S. aureus 29213: 2 µM
[10]
  MIC, S. epidermidis 12228: 2 µM
Gram-negative bacteria
  Therapeutic index (TI), Gram-negative bacteria: 64.00
Gram-positive bacteria
  Therapeutic index (TI), Gram-positive bacteria: 64.00
All strains in Table 2
  Therapeutic index (TI) / selectivity index (SI), All: 64.00
E. coli 25922 [11]
  MIC after incubation with 100% serum: 2 µM
  MIC in the presence of Ca2+: 4 µM
  MIC in the presence of Fe3+: 1 µM
  MIC in the presence of K+: 2 µM
  MIC in the presence of Mg2+: 2 µM
  MIC in the presence of NH4+: 2 µM
  MIC in the presence of Na+: 4 µM
  MIC in the presence of Zn2+: 1 µM
  MIC, Control: 1 µM
S. aureus 29213
  MIC after incubation with 100% serum: 8 µM
  MIC in the presence of Ca2+: 2 µM
  MIC in the presence of Fe3+: 2 µM
  MIC in the presence of K+: 1 µM
  MIC in the presence of Mg2+: 2 µM
  MIC in the presence of NH4+: 2 µM
  MIC in the presence of Na+: 2 µM
  MIC in the presence of Zn2+: 1 µM
  MIC, Control: 2 µM
[12]
  cell viability: ~ 50%
[13]
  MHC (concentration of peptide that causes hemolysis of 50% of human red blood cells): >128 µM

## Colistin
E. coli 25922 [14]
  generation at which resistance appeared: sixth generation
E. coli 25922 [14]; 30 passages
  increase in MIC values after 30 generations: 256 fold
E. coli 25922 [15]
  bacterial load in organs (liver, kidney, spleen, lungs): significantly reduced
